Earlier results, collected in patent US6994842B2, “Aerogel powder therapeutic agents” (Aspen Aerogels, Inc., priority 2000, dated 2006).

SMILES	solubility in water	solubility in supercritical carbon dioxide (supercritical carbon dioxide)
CCC(=O)C(CC(C)N(C)C)(c1ccccc1)c1ccccc1 (stereo not drawn) [Methadone]	12 g/100 mL	–
O=C1CC[C@@]2(O)[C@H]3Cc4ccc(O)c5c4[C@@]2(CCN3CC2CC2)[C@H]1O5 [free base Naltrexone, Naltrexone]	not that soluble	highly soluble
